Patent publication US11597727B2 (THE REGENTS OF THE UNIVERSITY OF CALIFORNIA, priority 2018, dated 2023)

molecular target: integrin α2β1 (Homo sapiens, UniProt P05556+P17301); assay: HT 1080 cell adhesion assay on rat tail collagen I; type: cell-based; design: HT1080 (human fibrosarcoma) cells (or human airway smooth muscle cells) were detached and resuspended in serum-free DMEM; endogenous in cells; host or cells: HT1080 human fibrosarcoma cells; details: HT1080 (human fibrosarcoma) cells on rat tail collagen I, absorbance at 595 nm, triplicate; read-out: IC50s from HT 1080 Cell adhesion assay
Sequence (P17301 30-1181): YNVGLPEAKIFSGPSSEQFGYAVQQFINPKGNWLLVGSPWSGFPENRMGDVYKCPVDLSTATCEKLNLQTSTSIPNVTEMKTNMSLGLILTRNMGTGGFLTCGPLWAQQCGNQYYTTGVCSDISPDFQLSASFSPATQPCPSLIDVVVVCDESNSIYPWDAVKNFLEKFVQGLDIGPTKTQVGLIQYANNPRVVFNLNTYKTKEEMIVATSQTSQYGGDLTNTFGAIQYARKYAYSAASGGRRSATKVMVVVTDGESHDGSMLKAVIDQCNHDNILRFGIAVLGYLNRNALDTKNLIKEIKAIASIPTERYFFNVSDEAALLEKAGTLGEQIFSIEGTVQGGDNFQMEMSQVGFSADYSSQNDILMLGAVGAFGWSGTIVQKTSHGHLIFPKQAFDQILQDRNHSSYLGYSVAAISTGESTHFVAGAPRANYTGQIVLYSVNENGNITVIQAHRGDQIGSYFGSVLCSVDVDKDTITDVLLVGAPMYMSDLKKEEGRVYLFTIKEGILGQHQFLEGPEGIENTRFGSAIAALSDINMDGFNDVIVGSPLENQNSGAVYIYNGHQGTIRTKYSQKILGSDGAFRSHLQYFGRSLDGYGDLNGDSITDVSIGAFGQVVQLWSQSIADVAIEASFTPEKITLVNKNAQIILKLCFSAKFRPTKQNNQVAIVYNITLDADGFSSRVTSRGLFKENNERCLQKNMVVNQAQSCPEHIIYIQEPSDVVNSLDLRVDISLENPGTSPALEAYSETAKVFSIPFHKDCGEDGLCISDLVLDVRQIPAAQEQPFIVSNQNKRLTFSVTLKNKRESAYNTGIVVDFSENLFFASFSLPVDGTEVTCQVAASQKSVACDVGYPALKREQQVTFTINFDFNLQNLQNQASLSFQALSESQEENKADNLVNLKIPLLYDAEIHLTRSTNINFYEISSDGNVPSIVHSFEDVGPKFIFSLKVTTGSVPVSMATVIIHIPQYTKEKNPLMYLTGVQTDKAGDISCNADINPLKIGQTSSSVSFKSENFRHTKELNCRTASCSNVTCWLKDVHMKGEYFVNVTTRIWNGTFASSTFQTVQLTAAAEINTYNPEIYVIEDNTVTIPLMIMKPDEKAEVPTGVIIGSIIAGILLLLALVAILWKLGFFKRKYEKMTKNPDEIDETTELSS
Sequence (P05556 21-798): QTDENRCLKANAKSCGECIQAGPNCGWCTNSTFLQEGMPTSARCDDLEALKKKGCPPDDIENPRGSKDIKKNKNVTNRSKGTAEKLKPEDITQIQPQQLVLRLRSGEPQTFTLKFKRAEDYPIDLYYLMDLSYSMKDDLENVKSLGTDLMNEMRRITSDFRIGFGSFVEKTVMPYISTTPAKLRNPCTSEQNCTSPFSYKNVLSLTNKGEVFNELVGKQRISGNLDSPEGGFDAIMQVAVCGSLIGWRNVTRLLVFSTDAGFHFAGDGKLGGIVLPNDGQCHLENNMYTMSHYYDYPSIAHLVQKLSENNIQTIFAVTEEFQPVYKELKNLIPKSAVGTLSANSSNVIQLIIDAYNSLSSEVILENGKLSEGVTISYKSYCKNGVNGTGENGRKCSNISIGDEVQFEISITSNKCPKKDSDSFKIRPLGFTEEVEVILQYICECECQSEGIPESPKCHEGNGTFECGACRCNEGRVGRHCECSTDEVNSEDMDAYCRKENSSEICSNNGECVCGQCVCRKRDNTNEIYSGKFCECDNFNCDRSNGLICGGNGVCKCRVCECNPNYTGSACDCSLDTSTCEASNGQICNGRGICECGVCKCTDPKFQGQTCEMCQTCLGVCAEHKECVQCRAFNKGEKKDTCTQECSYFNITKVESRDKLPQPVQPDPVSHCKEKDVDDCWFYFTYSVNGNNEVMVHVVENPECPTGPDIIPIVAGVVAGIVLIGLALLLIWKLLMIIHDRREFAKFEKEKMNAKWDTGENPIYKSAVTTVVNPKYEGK
Experimental: Cell adhesion Assay: Ninety-six-well flat-bottomed tissue culture plates were coated with rat tail collagen I for 1 hour at 37° C. After incubation, wells were blocked with 1% BSA at 37° C. for 1 hour. Control wells were filled with 1% BSA. HT1080 (human fibrosarcoma) cells (or human airway smooth muscle cells) were detached and resuspended in serum-free DMEM. Cells were incubated with anti-integrin alpha2 antibody control or 10-fold dilutions of each compound with a starting concentration of 10 uM for 15 minutes at 4° C. before plating. The plates were centrifuged at 10 g for 5 minutes before incubation for 1 hour at 37° C. in humidified 5% CO2. Nonadherent cells were removed by centrifugation (top side down) at 10 g for 5 minutes. Attached cells were stained with 0.5% crystal violet, and the wells were washed with PBS. The relative number of cells in each well was evaluated after solubilization in 40 μl of 2% Triton X-100 by measuring absorbance at 595 nm in a microplate reader. All determinations were carried out in triplicate.

SMILES	IC50
COc1cc(C)c(C(=O)N[C@@H](CNC(=O)NCc2ccccc2)C(=O)O)c(C)c1 [A2-60, (S)-3-(3-benzylureido)-2-(4-methoxy-2,6-dimethylbenzamido)propanoic acid]	10 to 100 µM
CN(C)C(=O)NC[C@H](NC(=O)c1c(Cl)cccc1Cl)C(=O)O [A2-70, (S)-2-(2,6-dichlorobenzamido)-3-(3,3-dimethylureido)propanoic acid]	> 100 µM
O=C(NC[C@H](NC(=O)c1c(Cl)cccc1Cl)C(=O)O)NC12CCC3CC(CC(C3)C1)C2 [A2-181, (25)-2-(2,6-dichlorobenzamido)-3-(3-(tricyclo[4.3.1.13,8]undecan-3-yl)ureido)propanoic acid]	10 to 100 µM
O=C(NCC1CC12CCCCC2)NC[C@H](NC(=O)c1c(Cl)cccc1Cl)C(=O)O (stereo partly drawn) [A2-177, (2S)-2-(2,6-dichlorobenzamido)-3-(3-(spiro[2.51]octan-1-ylmethyl)ureido)propanoic acid]	10 to 100 µM
O=C(NC[C@H](NC(=O)c1c(Cl)cccc1Cl)C(=O)O)NCC12CC3CC(CC(C3)C1)C2 [A2-83]	10 to 100 µM
O=C(NC[C@H](NC(=O)c1c(Cl)cccc1Cl)C(=O)O)NC1CCC2(CC1)C1CC3CC(C1)CC2C3 (stereo partly drawn) [A2-180, (S)-2-(2,6-dichlorobenzamido)-3-(3-(spiro[adamantane-2,1′-cyclohexan]-4′-yl)ureido)propanoic acid]	10 to 100 µM
O=C(NCC1CCc2ccccc21)NC[C@H](NC(=O)c1c(Cl)cccc1Cl)C(=O)O (stereo partly drawn) [A2-123]	< 10 µM
CC(C)(C)NC(=O)NC[C@H](NC(=O)c1c(Cl)cccc1Cl)C(=O)O	> 100 µM
O=C(NC[C@H](NC(=O)c1c(Cl)cccc1Cl)C(=O)O)N[C@@H]1CCCc2ccccc21 [A2-124, (2S)-2-(2,6-dichlorobenzamido)-3-(3-(1,2,3,4-tetrahydronaphthalen-1-yl)ureido)propanoic acid]	< 10 µM
O=C(NCc1ccccc1)NC[C@H](NC(=O)c1c(Cl)cncc1Cl)C(=O)O [A2-29, (S)-3-(3-benzylureido)-2-(3,5-dichloroisonicotinamido)propanoic acid]	< 10 µM
O=C(NC[C@H](NC(=O)c1c(Cl)cccc1Cl)C(=O)O)NC1CC2CCC1C2 (stereo partly drawn) [A2-172, (2S)-3-(3-(bicyclo[2.2.1]heptan-2-yl)ureido)-2-(2,6-dichlorobenzamido)propanoic acid]	< 10 µM
C[C@H](NC(=O)NC[C@H](NC(=O)c1c(Cl)cccc1Cl)C(=O)O)c1ccccc1 [KZ-1-13, (S)-2-(2,6-dichlorobenzamido)-3-(3-((S)-1-phenylethyl)ureido)propanoic acid]	> 100 µM
COc1cccc(OC)c1C(=O)N[C@@H](CNC(=O)NCc1ccccc1)C(=O)O [A2-28, (S)-3-(3-benzylureido)-2-(2,6-dimethoxybenzamido)propanoic acid]	> 100 µM
Cc1ccccc1CNC(=O)NC[C@H](NC(=O)c1c(Cl)cccc1Cl)C(=O)O [KZ-1-39, (S)-2-(2,6-dichlorobenzamido)-3-(3-(2-methylbenzyl)ureido)propanoic acid]	10 to 100 µM
Nc1ccc(CNC(=O)NC[C@H](NC(=O)c2c(Cl)cccc2Cl)C(=O)O)cc1 [KZ-1-37, (S)-3-(3-(4-aminobenzyl)ureido)-2-(2,6-dichlorobenzamido)propanoic acid]	> 100 µM
O=C(NCC1CCCCC1)NC[C@H](NC(=O)c1c(Cl)cccc1Cl)C(=O)O [KZ-1-22, (S)-3-(3-(cyclohexylmethyl)ureido)-2-(2,6-dichlorobenzamido)propanoic acid]	> 100 µM
O=C(NC[C@H](NC(=O)c1c(Cl)cccc1Cl)C(=O)O)N[C@H]1CCCc2ccccc21 [A2-125, (S)-2-(2,6-dichlorobenzamido)-3-(3-((S)-1,2,3,4-tetrahydronaphthalen-1-yl)ureido)propanoic acid]	< 10 µM

SMILES	IC50
O=C(NC[C@H](NC(=O)c1c(Cl)cccc1Cl)C(=O)O)NC12CC3CC(C1)CC(C(=O)O)(C3)C2 [A2-143, 3-(3-((S)-2-carboxy-2-(2,6-dichlorobenzamido)ethyl)ureido)adamantane-1-carboxylic acid]	10 to 100 µM
CCN(CC)C(=O)NC[C@H](NC(=O)c1c(Cl)cccc1Cl)C(=O)O [A2-71, (S)-2-(2,6-dichlorobenzamido)-3-(3,3-diethylureido)propanoic acid]	> 100 µM
CC(C)(C)CNC(=O)NC[C@H](NC(=O)c1c(Cl)cccc1Cl)C(=O)O [KZ-1-40, (S)-2-(2,6-dichlorobenzamido)-3-(3-neopentylureido)propanoic acid]	> 100 µM
CC(C)(C)OC(=O)NC[C@H](NC(=O)c1c(Cl)cccc1Cl)C(=O)O [A2-39, (S)-3-((tert-butoxycarbonyl)amino)-2-(2,6-dichlorobenzamido)propanoic acid]	10 to 100 µM
O=C(NCc1cccs1)NC[C@H](NC(=O)c1c(Cl)cccc1Cl)C(=O)O [KZ-1-34, (S)-2-(2,6-dichlorobenzamido)-3-(3-(thiophen-2-ylmethyl)ureido)propanoic acid]	10 to 100 µM
Cc1cc(OC(C)C)cc(C)c1C(=O)N[C@@H](CNC(=O)NCc1ccccc1)C(=O)O [A2-61, (S)-3-(3-benzylureido)-2-(4-isopropoxy-2,6-dimethylbenzamido)propanoic acid]	10 to 100 µM
O=C(NCCc1ccccc1)NC[C@H](NC(=O)c1c(Cl)cccc1Cl)C(=O)O [KZ-1-11, (S)-2-(2,6-dichlorobenzamido)-3-(3-phenethylureido)propanoic acid]	> 100 µM
O=C(NCc1ccc(Br)cc1)NC[C@H](NC(=O)c1c(Cl)cccc1Cl)C(=O)O [KZ-1-23, (S)-3-(3-(4-bromobenzyl)ureido)-2-(2,6-dichlorobenzamido)propanoic acid]	10 to 100 µM
O=C(NCc1c(F)cccc1F)NC[C@H](NC(=O)c1c(Cl)cccc1Cl)C(=O)O [KZ-1-33, (S)-2-(2,6-dichlorobenzamido)-3-(3-(2,6-difluorobenzyl)ureido)propanoic acid]	> 100 µM
CCC(CC)C(=O)N[C@@H](CNC(=O)NCc1ccccc1)C(=O)O [A2-38, (S)-3-(3-benzylureido)-2-(2-ethylbutanamido)propanoic acid]	> 100 µM
CCCNC(=O)NC[C@H](NC(=O)c1c(Cl)cccc1Cl)C(=O)O [KZ-1-27, (S)-2-(2,6-dichlorobenzamido)-3-(3-propylureido)propanoic acid]	> 100 µM
O=C(N[C@@H](CNc1nccc(-c2ccccc2)n1)C(=O)O)c1c(Cl)cccc1Cl [A2-73, (S)-2-(2,6-dichlorobenzamido)-3-((4-phenylpyrimidin-2-yl)amino)propanoic acid]	> 100 µM
O=C(N[C@@H](CNC(=S)NCc1ccccc1)C(=O)O)c1c(Cl)cccc1Cl [KZ-1-21, (S)-3-(3-benzylthioureido)-2-(2,6-dichlorobenzamido)propanoic acid]	10 to 100 µM
CC(NC(=O)NCC(NC(=O)c1c(Cl)cccc1Cl)C(=O)O)C1CC2CCC1C2 [A2-176, (2S)-3-(3-(1-((1 S,4R)-bicyclo[2.2.1]heptan-2-yl)ethyl)ureido)-2-(2,6-dichlorobenzamido)propanoic acid]	10 to 100 µM
O=C(NCC1CC2CCC1CC2)NC[C@H](NC(=O)c1c(Cl)cccc1Cl)C(=O)O (stereo partly drawn) [A2-175]	10 to 100 µM
O=C(NCc1ccccc1)NC[C@H](NC(=O)C1CCCCC1)C(=O)O [A2-63, (S)-3-(3-benzylureido)-2-(cyclohexanecarboxamido)propanoic acid]	> 100 µM
